Results on five substances are retold here after patent publication US10087465B2, “Trans-acting elements for intracellular delivery of nucleic acid sequences” (The United States of America, as Represented by the …, priority 2014, dated 2018).

Entries after “also recorded” stand apart in the source; their conditions may differ. {F1} = fluorescein label A value given as a limit tells only on which side of the number the result lay.

What all share (format): cell-based
For series [1], the system named is HeLa pLuc705 cells. Nature of the series: Luciferase splice correction assay. The conditions noted are these: for luciferase activity / internalization of the oligomer in the absence of PS-dT8[3+] (dTtaPS): no transfection element. On the procedure: The efficiency of PS-dT8[3+] in the cellular uptake of polyA-tailed PNA oligomers was assessed through the luciferase splice correction assay in which the mutated intron 2 of the human β-globin gene has been inserted within the coding sequence of a luciferase reporter gene (pLuc705). The activation of a cryptic splice site in this intron leads to a defective luciferase enzyme. In the presence of a PNA oligomer complementary to the aberrant splice site, correct splicing is restored and results in an active luciferase. A concentration-dependence of splice correction activity by PS-dT8[3+]-mediated internalization of the PNA oligomer 10 in HeLa pLuc705 cells is shown in FIG. 12.
(§1) Complex formation between PNA or PMO oligomers and dTtaPS or dAtaPS: Appropriate amounts of PNA or PMO oligomers were diluted in serum-free OptiMEM™ (20 μl). dTtaPS or dAtaPS was added to the oligomer solution to achieve a final concentration that is twice that of the oligomer. After 30 min incubation at 37° C., the PNA or PMO oligomer: dTtaPS or dAtaPS complexes were stored at 4° C. for 15 minutes or until used. Stock solutions (2×) of the complexes were made by adding OptiMEM™ to appropriate volumes.
Luciferase assay protocol: HeLa pLuc 705 cells were seeded in a 96-well plate (2×10^4 cells/well) and allowed to grow at 37° C. for 18 h in 10% FBS-DMEM. The culture medium of each well was then replaced with either fresh serum-free or 20% serum-containing OptiMEM™ (50 μl) for experiments intended to be performed in serum-free or in 10% serum-containing media. A 2× solution of PNA or PMO oligomer:dTtaPS or dAtaPS complexes (50 μl) was added to the cells in order to achieve pre-determined complex concentrations, as indicated in the Figures. After a 4-hour incubation at 37° C., 20% FBS in OptiMEM™ (100 μl was added to serum-free experiments and cells were incubated for an additional 18 h at 37° C. The media was then removed by suction and the cells were mixed with a cell lysis reagent (50 μl) and agitated at ambient temperature for 10 minutes. The cell lysate (30 μl) was placed in a white 96-well plate and Bright-Glo™ reagent (20 μl) was added. Luciferase activity was measured using a microplate reader. For each well, luminescence was integrated over a period of 1 sec and recorded as relative light units (RLU). Luminescence measurements were normalized to the amount of protein present in the test sample.
Appropriate amounts of PNA/PMO oligomers were diluted in OptiMEM™ (20 μL) to achieve the concentration of 1 μM or as indicated in the Figures. PS-dT8[3+] or PS-dAs[3+] was added to the above oligomer solutions. After a 30 min incubation at 37° C., the PNA/PMO oligomer:PS-dT8[3+] or PS-dA8[3+] complexes were removed and kept at 4° C. for 15 minutes or until used. Stock solutions of the complexes were made by adding OptiMEM™ to appropriate volumes.
Luciferase Assay: Prior to performing experiments, HeLa pLuc 705 cells were seeded in a 96-well plate (2×10^4 cells/well) and allowed to grow at 37° C. for 18 h in 10% FBS DMEM. The culture medium of each well was then replaced with either fresh 50 μL serum free or 20% serum-containing OptiMEM™ for experiments intended to be performed in serum free or in 10% serum-containing media. A 2× solution of the PNA/PMO oligomer:PS-dT8[3+] or PS-dAs[3+] complexes (50 μL) was added to the cells in order to achieve a pre-determined concentration as indicated in the figures. After a 4-hour incubation at 37° C., 20% FBS in OptiMEM (100 μL) was added to serum free experiments and cells were incubated for an additional 18 h at 37° C. The media was then removed by suction and the cells were mixed with a cell lysis reagent (50 μL) and agitated at ambient temperature over a period of 10 minutes. The cell lysate (30 μL) was placed in white 96-well plate and Bright-Glow™ reagent (20 μL) was added. Luciferase activity was measured using a microplate reader. […]

Series [2] has as its system HeLa pLuc705 cells. The series is described as follows: Cytotoxicity study with commercial cell-counting kit (CCK-8). The conditions noted are these: oligomer 1.0 μM, dTtaPS 2.0 μM; 18 h; compared to medium or absence of dTtaPS. On the procedure: Flat-bottom 96-well plates were purchased from BD-Falcon. The CCK-8 Kit for cytotoxicity studies was purchased from Dojindo Molecular Technologies.
The cytotoxicity of PNA oligomer 10:dTtaPS and PMO oligomer 21:dTtaPS complexes in HeLa pLuc 705 cells was evaluated over a period of 18 h using a commercial cell-counting kit.

Series [3] relates to HeLa pLuc 705 cells. The series is described as follows: Energy-dependence of the dTtaPS-assisted internalization of PNA oligomer 10. The conditions noted are these: dTtaPS-mediated uptake; incubation of 1 h. On the procedure:
Energy-dependence of the dTtaPS-assisted internalization of PNA oligomer 10 in HeLa pLuc 705 cells: HeLa pLuc 705 cells were seeded in a 96-well plate (2×10^4 cells/well) and allowed to grow at 37° C. for 18 h in 10% FBS-DMEM. While the cell culture was maintained at 37° C. or 4° C., a 2× solution of a PNA oligomer 10:dTtaPS complex was prepared as described above. The cell culture medium was replaced with the PNA oligomer:dTtaPS complex solution to provide an oligomer and dTtaPS final concentration of […], respectively. After an incubation of 1 h at 37° C. or 4° C., the medium was removed by suction and luciferase activity was measured as described above in the Luciferase assay protocol. Luminescence measurements were normalized to the amounts of protein present in the test samples and reported as percent luminescence remaining relative to that of the experiment performed at 37° C.

Series [4] deals with HEK 293, HeLa, HeLa pLuc705, MCF7 and SK—N—SH live cells. The series is described as follows: Flow cytometry (FACS) analysis of cellular uptake of fluorescently-labeled PNA or PMO oligomers in live cells. As to the method: as §1
Flow cytometry analysis of cellular uptake in live cells: The internalization of fluorescently-labeled PNA or PMO sequences (Table 1) in HEK 293, HeLa, MCF7 and SK—N—SH cells was assessed by flow cytometry. Cells were seeded in a 96-well plate (10^4 cells/well) and allowed to grow at 37° C. for 24 h in 10% FBS-MEM. The culture medium of each well was then replaced with fresh medium (100 μl) containing any of the fluorescently-labeled PNA or PMO sequences, the final concentration of which was 1 μM. After an incubation of 18 h at 37° C., the medium was removed from each well by suction and 0.25% Trypsin (50 μl) was added. Upon complete cell detachment, a solution (100 μl) of ice-cold 2% FBS in phosphate-buffered saline (PBS, pH 7.4) was added to each well. The cells were collected into tubes, to which was added 0.4% Trypan blue (50 μl) and 200 µM monensin (20 μl), and analyzed by fluorescence-activated cell sorting (FACS) using a BD FACScan™ flow cytometer. A total of 5000 events were counted and the results were reported as a percentage of the cells that have internalized the fluorescently-labeled oligomers.

The subject of series [5] is HeLa pLuc 705 cells. Nature of the series: Confocal microscopy analysis of dTtaPS-assisted internalization of PNA or PMO oligomers. The conditions noted are these: dTtaPS-assisted uptake; oligomer 1.0, dTtaPS 2.0 μM; 12 h at 37° C. As to the method:
Confocal microscopy analysis of dTtaPS-assisted internalization of PNA or PMO oligomers in HeLa pLuc 705 cells: HeLa pLuc 705 cells (5×10^4 cells/well) were seeded in 8-well chambered slides and cultured for 24 h at 37° C. in 10% FBS-MEM (200 μl). The culture medium of each well was then replaced with 20% FBS containing fresh medium (200 μl) and the fluoresceinated PNA or PMO oligomer:dTtaPS complex that was prepared as described above to provide an oligomer and dTtaPS final concentration of […] and 2.0 μM, respectively. After a 12 h incubation at 37° C., the medium was removed and a 0.4% Trypan Blue solution (200 μl) was added to quench the fluorescence stemming from extracellular fluoresceinated oligonucleotides. After a period of 5 minutes at ambient temperature, the cells were washed twice with PBS (pH 7.4, 200 μl) followed by the addition of fresh phenol red-free DMEM (200 μl) supplemented with 10% FBS. The intracellular distribution of fluorescence was determined without fixation using a Leica SP8 confocal microscope system and analysed using the Leica LASAF software. Hoechst 33342 was used, in accordance with the manufacturer's staining protocols, for the detection of nuclei. Images were acquired at a 63× magnification.

The subject of series [6] is HeLa pLuc 705 cells. Nature of the series: Competition assay with PS-dT8 (luciferase readout). The conditions noted are these: PNA oligomer 10 1.0 μM, dTtaPS 1.0 μM, PS-dT8 1.0, 2.0 or 4.0 μM. As to the method:
Competition assay: HeLa pLuc 705 cells were seeded in a 96-well plate and grown in 10% FBS-DMEM as described above. Predetermined amounts of polyA-tailed PNA oligomer 10 and octathymidilyl DNA phosphorothioate (PS-dT8) were placed in individual microfuge tubes so that the molar ratio of PNA:PS-dT8 in each tube was 1:1, 1:2 or 1:4. OptiMEM™ (20 μl) was added to each of the three tubes, which were then placed in a heating block pre-heated to 60° C. After 2 min, the tubes were removed from the heating block, allowed to cool slowly to 20° C., and then, left standing in a cold room (4° C.) for 15 min. dTtaPS was added to the mixture of oligomers of each tube to achieve a concentration that is equimolar to that of the PNA oligomer 10. After a 30 min incubation at 37° C., the PNA/PS-dT8:dTtaPS complexes were stored at 4° C. for 15 minutes or until used. […] The cells were then incubated for an additional 30 min at 37° C., whereupon luciferase activity was measured as described above in the Luciferase assay protocol. Luminescence measurements were normalized to the amounts of protein present in the test samples and reported as percent luminescence remaining relative to that of the experiment performed in the absence of PS-dT8.

As to “PMO oligomer 21: commercial PMO, CCTCTTACCTCAGTTACA-AAAAAA, SEQ ID NO. 15 (CCTCTTACCTCAGTTACAAAAAAA; all phosphorodiamidate morpholino (PMO))”, the “luciferase activity / internalization of the oligomer in the absence of PS-dT8[3+] (dTtaPS)” value in the series with HeLa pLuc705 cells [1] (listed as 21) is “reduced to that of the negative control oligomer 22”. In addition, the “cytotoxicity of oligomer:dTtaPS complexes” value with HeLa pLuc705 cells [2] is recorded as “did not induce significant cytotoxicity”.
As for “PNA oligomer 10: commercial PNA, H-CCTCTTACCTCAGTTACA-AAAAAA-NH2, SEQ ID NO. 4 (CCTCTTACCTCAGTTACAAAAAAA; all peptide nucleic acid (PNA); PNA with C-terminal amide)”, the “luciferase activity / internalization upon PS-dA8[3+] (dAtaPS)-mediated delivery of PNA oligomers” value in the series with HeLa pLuc705 cells [1] (PS-dA8[3+] 2.0 μM, compared with PS-dT8[3+]:10 complex, FIG. 16, listed as 10) is reported as “No significant level of luciferase activity was detected; also recorded: Poor luciferase activity”. Further, the “luciferase activity (splice correction) upon PS-dT8[3+] (dTtaPS)-assisted delivery of PNA oligomers” value in the series on HeLa pLuc705 cells [1] (PS-dT8[3+] 2 μM, FIG. 12, 13, 15, listed as 10) is given as “induced splice correction of the pre-mRNA encoding luciferase, in a dose-dependent manner”. Moreover, in the series with HeLa pLuc705 cells [1], the “luciferase activity / internalization of the oligomer in the absence of PS-dT8[3+] (dTtaPS)” value was “no luciferase activity was detected”. Further, the “cytotoxicity of oligomer:dTtaPS complexes” value with HeLa pLuc705 cells [2] is “did not induce significant cytotoxicity”. Further, the “decrease of luciferase activity production at 4° C. relative to 37° C.” value in the series on HeLa pLuc 705 cells [3] is reported as “at least 50%”.
Regarding “PNA oligomer 7: commercial PNA, F1-CCTCTTACCTCAGTTACA-AAAAAA-NH2, SEQ ID NO. 1 (CCTCTTACCTCAGTTACAAAAAAA; all peptide nucleic acid (PNA), 5' {F1}; PNA with C-terminal amide, further chemistry not fully specified)”, the “mean fluorescence intensity (MFI) after internalization, relative to that of PMO oligomer 18” value in series [4] (dTtaPS-mediated uptake, FACS analysis) is on record as around 10 fold. In addition, the “PS-dT8[3+] (dTtaPS)-mediated cellular internalization of fluoresceinated PNA oligomers” value in series [4] (in the presence of PS-dT8[3+], oligomer 1 μM, all cell lines under study, FIG. 11) is listed as “efficiently internalized”. In the series with HeLa pLuc 705 cells [5], the “intracellular distribution of fluorescence” value is listed as “endosomal sequestration of 7 is predominant”.
For the substance “octathymidilyl DNA phosphorothioate [PS-dT8]”, the “decrease of luciferase activity production relative to control without PS-dT8” value in the series with HeLa pLuc 705 cells [6] was at most 80%.
With “PMO oligomer 18: commercial PMO, CCTCTTACCTCAGTTACA-AAAAAA-F1, SEQ ID NO. 12 (CCTCTTACCTCAGTTACAAAAAAA; all phosphorodiamidate morpholino (PMO), 3' {F1})”, the “PS-dT8[3+] (dTtaPS)-mediated delivery of fluoresceinated PMO oligomers” value in series [4] (PMO oligomer 1 μM, PS-dT8[3+] 2 μM, all cell lines, FIG. 17, listed as 18) is reported as “confirmed the dTtaPS-assisted delivery”. For the same substance, the “intracellular distribution of fluorescence” value with HeLa pLuc 705 cells [5] was “endosomal sequestration of 18 and modest nuclear fluorescence”.
